From patent publication US9682965B2, “Fumagillol heterocyclic compounds and methods of making and using same” (Zafgen, Inc., priority 2015, dated 2017)
Counter-ions that a name gives are not always drawn. Like-named read-outs stand apart in the source and are kept apart here.

How the values were obtained:
[1] = system: pregnant Sprague Dawley rats (embryo/fetal development)
Text: Study Summary Rat Embryofetal:
The objective of this study design was to evaluate the potential effects of disclosed compounds on embryo/fetal development when given subcutaneously to pregnant rats once every three days during the critical period of organogenesis (Gestation Days 6-18). Female, Sprague Dawley rats, approximately 10 weeks of age, time bred, were ordered from a certified vendor and housed individually housed in stainless steel cages suspended over flush pans, on a 12-hour light-dark cycle (0700-1900) at 20-26° C. and 30-70% humidity. Rats were fed a standard rodent chow and provided water ad libitum. Rats were received and housed in the facility for a period of approximately 1 to 2 days.
Compounds were formulated using 100% DMSO mixed in Sterile Water for Injection, resulting in 2% DMSO solution in water. If necessary, due to limited solubility of a test article, a higher percentage of DMSO solution in water was used. Groups of 8 mated and presumed pregnant female rats were given subcutaneous doses of vehicle or test article, once every three days, beginning on Gestation Day 6 and ending on Gestation Day 18 (Days 6, 9, 12, 15, and 18), maintained two more days, and then euthanized and necropsied on Gestation Day 20. Body weights was recorded for all animals on Gestation Days 5 (purpose of randomization), 6, 9, 12, 15, 18, and 20 (scheduled euthanasia). Food consumption by weight was recorded on Gestation Days 6, 9, 12, 15, 18, and 20 (scheduled termination).
At necropsy, the dams were examined visually for external abnormalities including palpable masses. The abdominal, thoracic, and cranial cavities and their contents were examined for abnormalities and findings will be recorded. The reproductive tract were examined to record the number of ovarian corpora lutea, the number and location of uterine implantation sites noting the position of the cervix, and the number of early resorptions, late resorptions, live fetuses, and dead fetuses. For dead fetuses and late resorptions, crown-to-rump length and weight were recorded, if possible, and the fetus was discarded. For viable fetuses, weight, sex, and grossly visible external abnormalities were recorded.

[2] = system: Male Sprague Dawley rats on high fat diet; experiment: 11 day rat DIO model (body weight, food intake, hematology, blood chemistries); assay type: in vivo; details: 264 h, read-out: DIO Rat 11-day weight loss vs vehicle
In short: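 Male Sprague Dawley rats on 45% high-fat diet, acclimated 3 days to vehicle injections, then given compound (0.03-1.0 mg/kg) or vehicle (10% DMSO in water) sc once daily for 11 days. Body weight and food intake recorded daily. Blood taken about 2 h after the final dose for hematology and chemistry.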

[3] = system: Diet Induced Obese (DIO) C57BL/6 mice; experiment: 10 day DIO mouse model (body weight, food intake, hematology, blood chemistry); assay type: in vivo; details: 240 h, read-out: DIO Mouse 10-day weight loss vs vehicle
In short: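 DIO C57BL/6 mice on 60% kcal fat diet received compounds subcutaneously once daily for 10 days at 1.0, 0.5, 0.3, 0.1 or 0.03 mpk, in 10% DMSO in water, after 3-day vehicle acclimation. Body weight and food intake were recorded daily. Hematology and blood chemistry were taken on Day 11, 24 h post-final dose.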

[4] = 6 mpk, subcutaneous, once every three days, Gestation Days 6-18, pregnant rats
[5] = DIO mouse, 0.3 mpk sc, once a day for 10 days
[6] = DIO rat, 0.3 mpk sc, once a day for 11 days
[7] = DIO rat, 1.0 mpk sc, once a day for 11 days

| Structure (SMILES) | Rat Embryofetal @6 mpk ([1]; rat, in vivo) | inhibition in vivo at 0.3 mg/kg ([3]; Mus musculus, sc) | Rat Embryofetal @6 mpk [1, 4] | inhibition in vivo at 0.3 mg/kg [3, 5] | inhibition in vivo at 0.3 mg/kg [2, 6] | other results |
| --- | --- | --- | --- | --- | --- | --- |
| CO[C@@H]1[C@H](OC(=O)N2CC(CCN3CC(O)C3)C2)CC[C@]2(CO2)[C@H]1[C@@]1(C)O[C@@H]1CC=C(C)C [Example 6, (3R,4S,5S,6R)-5-methoxy-4-((2R,3R)-2-methyl-3-(3-methylbut-2-enyl)oxiran-2-yl)-1-oxaspiro[2.5]octan-6-yl 3-(2-(3-hydroxyazetidin-1-yl)ethyl)azetidine-1-carboxylate formate] | Positive | 11.8% | – | – | – | inhibition in vivo at 0.3 mg/kg ([2]; Rattus norvegicus, sc): 0.8%; inhibition in vivo at 1 mg/kg ([2]; Rattus norvegicus, sc): 4.6% |
| CO[C@@H]1[C@H](OC(=O)N2CC(OC(=O)N3CCN(CC(F)(F)F)CC3)C2)CC[C@]2(CO2)[C@H]1[C@@]1(C)O[C@@H]1CC=C(C)C [Example 81, 1-(((3R,4S,5S,6R)-5-methoxy-4-((2R,3R)-2-methyl-3-(3-methylbut-2-enyl)oxiran-2-yl)-1-oxaspiro[2.5]octan-6-yloxy)carbonyl)azetidin-3-yl 4-(2,2,2-trifluoroethyl)piperazine-1-carboxylate] | – | – | Positive | 16.9% | – | – |
| CO[C@@H]1[C@H](OC(=O)N2CC(CCN3CC4C(C3)C4(F)F)C2)CC[C@]2(CO2)[C@H]1[C@@]1(C)O[C@@H]1CC=C(C)C (stereo partly drawn) [Example 22, (3R,4S,5S,6R)-5-methoxy-4-((2R,3R)-2-methyl-3-(3-methylbut-2-enyl)oxiran-2-yl)-1-oxaspiro[2.5]octan-6-yl 3-(2-(6,6-difluoro-3-azabicyclo[3.1.0]hexan-3-yl)ethyl)azetidine-1-carboxylate formate] | Negative | 14% | – | – | – | – |
| CO[C@@H]1[C@H](OC(=O)N2CC(CCN3CCOCC3)C2)CC[C@]2(CO2)[C@H]1[C@@]1(C)O[C@@H]1CC=C(C)C [Example 1, (3R,4S,5S,6R)-5-methoxy-4-((2R,3R)-2-methyl-3-(3-methylbut-2-en-1-yl)oxiran-2-yl)-1-oxaspiro[2.5]octan-6-yl 3-(2-morpholinoethyl)azetidine-1-carboxylate] | – | – | Negative | 16.8% | 5.7% | inhibition in vivo at 1 mg/kg [2, 7]: 7.7% |
| CO[C@@H]1[C@H](OC(=O)N2CC(Cc3ccc(C)nc3)C2)CC[C@]2(CO2)[C@H]1[C@@]1(C)O[C@@H]1CC=C(C)C [Example 101, (3R,4S,5S,6R)-5-methoxy-4-((2R,3R)-2-methyl-3-(3-methylbut-2-enyl)oxiran-2-yl)-1-oxaspiro[2.5]octan-6-yl 3-((6-methylpyridin-3-yl)methyl)azetidine-1-carboxylate] | – | – | Positive | 15.6% | 3.9% | – |
| CCN(CC)CCCC1CN(C(=O)O[C@@H]2CC[C@]3(CO3)[C@@H]([C@@]3(C)O[C@@H]3CC=C(C)C)[C@@H]2OC)C1 [Example 104, (3R,4S,5S,6R)-5-methoxy-4-((2R,3R)-2-methyl-3-(3-methylbut-2-enyl)oxiran-2-yl)-1-oxaspiro[2.5]octan-6-yl 3-(3-(diethylamino)propyl)azetidine-1-carboxylate] | – | – | Positive | 6.4% | 1.2% | inhibition in vivo at 1 mg/kg [2, 7]: 9.9%; inhibition in vivo at 0.03 mg/kg ([3]; DIO mouse, 0.03 mpk sc, once a day for 10 days): -0.9%; inhibition in vivo at 0.1 mg/kg ([3]; DIO mouse, 0.1 mpk sc, once a day for 10 days): 8.3%; inhibition in vivo at 1 mg/kg ([3]; DIO mouse, 1.0 mpk sc, once a day for 10 days): 10.9% |
| CO[C@@H]1[C@H](OC(=O)N2CC(CCN3CC(C)(O)C3)C2)CC[C@]2(CO2)[C@H]1[C@@]1(C)O[C@@H]1CC=C(C)C [Example 9, (3R,4S,5S,6R)-5-methoxy-4-((2R,3R)-2-methyl-3-(3-methylbut-2-enyl)oxiran-2-yl)-1-oxaspiro[2.5]octan-6-yl 3-(2-(3-hydroxy-3-methylazetidin-1-yl)ethyl)azetidine-1-carboxylate formate] | Positive | 7.4% | – | – | – | inhibition in vivo at 0.3 mg/kg ([2]; Rattus norvegicus, sc): 5.5%; inhibition in vivo at 1 mg/kg ([2]; Rattus norvegicus, sc): 4.8% |
